Here are results for seven compounds from ChEMBL document CHEMBL1127588, “A structure-activity relationship study of benzylic modifications of 4-[1-(1-naphthyl)ethyl]-1H-imidazoles on alpha 1- and alpha 2-adrenergic receptors” (J Med Chem, 1994).

The target in experiment [1] is T1, Adrenergic receptor alpha-2 (Rattus norvegicus, UniProt P22086+P19328+P22909).
T1 sequence (P22086 whole entry): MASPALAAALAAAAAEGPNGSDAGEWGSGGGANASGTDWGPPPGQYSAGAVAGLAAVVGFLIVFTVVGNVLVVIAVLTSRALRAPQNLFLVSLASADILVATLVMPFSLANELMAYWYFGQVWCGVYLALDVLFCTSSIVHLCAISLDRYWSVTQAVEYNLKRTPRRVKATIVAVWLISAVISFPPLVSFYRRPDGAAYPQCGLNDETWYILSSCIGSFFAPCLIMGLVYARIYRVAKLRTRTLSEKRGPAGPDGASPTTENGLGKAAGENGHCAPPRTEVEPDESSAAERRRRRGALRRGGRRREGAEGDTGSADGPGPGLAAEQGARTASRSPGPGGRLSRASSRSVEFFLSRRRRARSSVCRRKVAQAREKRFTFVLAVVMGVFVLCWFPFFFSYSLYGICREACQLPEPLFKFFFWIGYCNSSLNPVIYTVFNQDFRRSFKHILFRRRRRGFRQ
T1 sequence (P19328 whole entry): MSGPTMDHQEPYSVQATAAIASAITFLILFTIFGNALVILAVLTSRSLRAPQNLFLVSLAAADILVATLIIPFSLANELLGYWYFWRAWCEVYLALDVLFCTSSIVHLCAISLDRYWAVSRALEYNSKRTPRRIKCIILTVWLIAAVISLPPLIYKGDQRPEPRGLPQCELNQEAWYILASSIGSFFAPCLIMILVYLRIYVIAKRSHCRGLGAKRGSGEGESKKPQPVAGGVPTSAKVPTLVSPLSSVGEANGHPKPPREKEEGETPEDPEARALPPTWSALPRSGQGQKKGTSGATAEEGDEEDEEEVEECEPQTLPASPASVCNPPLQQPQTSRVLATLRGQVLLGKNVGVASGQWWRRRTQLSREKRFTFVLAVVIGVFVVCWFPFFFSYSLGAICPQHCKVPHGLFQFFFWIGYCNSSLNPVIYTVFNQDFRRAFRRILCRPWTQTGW
T1 sequence (P22909 whole entry): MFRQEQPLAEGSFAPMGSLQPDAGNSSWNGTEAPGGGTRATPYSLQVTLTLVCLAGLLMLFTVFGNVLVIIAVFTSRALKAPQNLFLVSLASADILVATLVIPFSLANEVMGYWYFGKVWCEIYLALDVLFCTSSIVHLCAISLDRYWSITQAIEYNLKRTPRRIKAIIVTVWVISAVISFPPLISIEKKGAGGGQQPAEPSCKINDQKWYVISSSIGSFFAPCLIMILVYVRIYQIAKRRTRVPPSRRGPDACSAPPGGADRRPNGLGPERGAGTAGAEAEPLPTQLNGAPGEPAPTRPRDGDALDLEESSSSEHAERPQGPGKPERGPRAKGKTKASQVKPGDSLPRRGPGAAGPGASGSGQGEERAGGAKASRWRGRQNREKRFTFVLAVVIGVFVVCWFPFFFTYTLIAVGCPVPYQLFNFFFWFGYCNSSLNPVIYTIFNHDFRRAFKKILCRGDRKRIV
The experiment is described as follows: Tested for its binding affinity against alpha-2 receptor in rat brain membrane. The experiment is classed as cell membranes.

The target of experiment [2] is T2, Adrenergic receptor alpha-1 (Rattus norvegicus, UniProt P15823+P23944+P43140).
T2 sequence (P15823 whole entry): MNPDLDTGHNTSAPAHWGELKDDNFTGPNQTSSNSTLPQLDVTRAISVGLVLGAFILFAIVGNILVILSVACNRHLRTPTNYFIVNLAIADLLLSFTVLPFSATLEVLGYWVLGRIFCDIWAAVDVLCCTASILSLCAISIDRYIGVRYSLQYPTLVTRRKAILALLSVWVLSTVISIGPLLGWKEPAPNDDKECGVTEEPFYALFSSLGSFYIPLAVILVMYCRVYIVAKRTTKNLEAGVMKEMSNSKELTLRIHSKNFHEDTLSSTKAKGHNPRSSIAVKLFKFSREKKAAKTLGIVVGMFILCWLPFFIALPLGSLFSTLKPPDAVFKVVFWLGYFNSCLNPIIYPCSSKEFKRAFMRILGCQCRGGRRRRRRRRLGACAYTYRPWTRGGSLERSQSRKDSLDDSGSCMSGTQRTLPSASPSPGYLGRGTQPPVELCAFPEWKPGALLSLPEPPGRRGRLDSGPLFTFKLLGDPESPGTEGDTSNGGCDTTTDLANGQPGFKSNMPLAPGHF
T2 sequence (P23944 whole entry): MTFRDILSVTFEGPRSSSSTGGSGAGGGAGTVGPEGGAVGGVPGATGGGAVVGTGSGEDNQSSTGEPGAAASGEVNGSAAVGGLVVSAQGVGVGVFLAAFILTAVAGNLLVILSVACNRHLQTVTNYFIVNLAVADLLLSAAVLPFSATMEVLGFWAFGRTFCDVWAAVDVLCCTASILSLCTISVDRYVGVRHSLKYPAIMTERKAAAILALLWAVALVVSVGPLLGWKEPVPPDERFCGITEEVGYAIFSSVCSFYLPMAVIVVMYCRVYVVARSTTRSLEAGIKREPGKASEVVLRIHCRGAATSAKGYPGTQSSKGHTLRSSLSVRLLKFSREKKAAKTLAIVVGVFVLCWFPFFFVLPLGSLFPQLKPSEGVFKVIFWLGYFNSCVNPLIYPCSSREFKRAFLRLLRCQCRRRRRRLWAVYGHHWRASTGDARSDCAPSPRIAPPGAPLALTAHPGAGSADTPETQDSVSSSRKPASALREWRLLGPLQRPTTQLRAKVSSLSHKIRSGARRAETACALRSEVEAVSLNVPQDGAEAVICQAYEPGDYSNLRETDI
T2 sequence (P43140 whole entry): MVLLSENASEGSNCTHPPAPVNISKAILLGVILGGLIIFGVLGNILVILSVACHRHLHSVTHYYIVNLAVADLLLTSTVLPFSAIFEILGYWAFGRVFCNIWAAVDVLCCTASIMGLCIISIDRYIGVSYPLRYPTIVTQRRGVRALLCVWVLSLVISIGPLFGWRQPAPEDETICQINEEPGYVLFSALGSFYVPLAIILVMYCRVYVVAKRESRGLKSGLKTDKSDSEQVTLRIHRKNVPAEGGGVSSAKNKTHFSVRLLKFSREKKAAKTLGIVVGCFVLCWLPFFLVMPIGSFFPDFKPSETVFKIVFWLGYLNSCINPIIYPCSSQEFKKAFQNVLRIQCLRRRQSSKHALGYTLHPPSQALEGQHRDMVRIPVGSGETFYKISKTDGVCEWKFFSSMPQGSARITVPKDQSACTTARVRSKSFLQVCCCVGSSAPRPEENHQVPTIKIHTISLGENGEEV
The experiment is described as follows: Tested for its binding affinity against alpha-1 receptor in rat brain membrane. The experiment is classed as cell membranes.

Consider `Cl.c1ccc2c(Cc3c[nH]cn3)cccc2c1`, for which the Ki is reported as 68 nM in experiment [1] and 188 nM in experiment [2].

Regarding `Cl.OC(c1c[nH]cn1)c1cccc2ccccc12` (centres undefined), the Ki in experiment [1] amounted to 8810 nM; in experiment [2] it was 9255 nM.

`CC(c1c[nH]cn1)c1cccc2ccccc12` (stereo in doubt; S-(-)-2): the values for the Ki in experiment [1] and in experiment [2] were 24 nM and 536 nM, respectively.

Turning to `COC(c1c[nH]cn1)c1cccc2ccccc12.Cl` (centres undefined), the Ki was 8582 nM in experiment [1] and above 50000 nM in experiment [2].

As to `CC(c1c[nH]cn1)c1cccc2ccccc12` (stereo in doubt; S-(+)-2), the Ki in experiment [1] is listed as 11 nM; in experiment [2], 461 nM.

On to `Cc1cccc(C(C)c2c[nH]cn2)c1C` (centres undefined) [MEDETOMIDINE], for which the values for the Ki in experiment [1] and in experiment [2] were 19 nM and 1102 nM, respectively.

As to `CC(c1c[nH]cn1)c1cccc2ccccc12` (stereo in doubt; 2), the Ki in experiment [1] stood at 17 nM; in experiment [2], 310 nM.

For orientation: Ki means a measure of affinity in units of concentration, obtained from inhibition or displacement.
